Experimental data from PMC8536644, “Enigmatic mechanism of the N-vinylpyrrolidone hepatocarcinogenicity in the rat” (Archives of Toxicology, 2021).

Experiments:
CYP 2B/3A = assay: BROD assay, liver microsomes (PXR marker); format: in vivo, rat; details: male rats
Protocol: The alkoxyresorufin dealkylase (AROD) assays were based on the method by Burke et al. ([1994]).
The frozen livers and lungs of the NVP-treated male Wistar rats were thawed and washed with isotonic (0.9%) NaCl solution. The tissues were ice-cooled homogenized (1 g tissue: 3 mL 0.25 M saccharose in 1 mM disodium EDTA, pH 7.4) and centrifuged (9000 g, 15 min, 4 °C). The supernatant fraction was centrifuged (100 000 g, 60 min, 4 °C). The resulting supernatant fraction was used for the palmitoyl-CoA-oxidase assay described further down. The pellet was taken up in 150 mM aqueous KCl solution, recentrifuged (100 000 g, 60 min, 4 °C) and the pellet taken up in 1 mL/g liver or 0.5 mL/g lung resuspension buffer (1 mM GSH, 1 mM disodium EDTA, 4 mM MgCl2, 0.1 M KH2PO4, pH 7.5 and 4% glycerol). Aliquots were stored at − 80 °C.
For determination of the enzyme activities in triplicates, 85 µL master mix (100 mM TrisHCl pH 7.5, 2 mM 5’AMP, 5 mM G-6-P, 10 U G-6-P-DH, 10 mM Dicumarol, 10 mM MgCl2, either 2 µM EROD or 10 µM PROD or 5 µM BROD) was added to 10 µL microsomal fraction (1 mg protein/mL). The reaction was started by the addition of 5 µL 2 mM NADPH (dissolved in 100 mM TrisHCl pH 7.5) followed by incubation at 37 °C for 16 min. The activity was determined by measuring the increase of the fluorescence (excitation at 550 nm, emission at 585 nm) due to resorufin formation compared with resorufin standards, which had been prepared by dissolving tenfold concentrated solutions in DMSO, which were then diluted tenfold in 100 mM TrisHCl pH 7.5.

primary rat hepatocytes = assay: Gene expression analysis (Affymetrix) in cultivated rat hepatocytes; format: cell-based; details: 24 h; for Nrg1 upregulation / PDK4 upregulation / Atf3 upregulation: adj. p < 0.001
Protocol: Isolation and cultivation of primary rat hepatocytes was performed according to a published standard operation procedure (Godoy et al. [2013]) and Affymetrix gene array analysis as described in Grinberg et al. ([2018]). Briefly, male Wistar rats with a body weight of 220–300 g were purchased from Charles River (Sulzfeld, Germany). The animals had free access to food (sniff, Soest, Germany) and water and were kept under controlled temperature (18–26 °C), humidity (30–70%) and lighting (12 h light/dark circle). Prior to any experimental procedure, the animals were acclimated for a minimum of 6 days. This study was approved by the local committee for the welfare of experimental animals and was performed in accordance with national legislation. RNA was extracted from cultivated primary hepatocytes as described by Heise et al. ([2012]). Incubation of the cultivated rat hepatocytes with the test compounds was performed for 24 h. Rat hepatocytes were cultivated as sandwich cultures using 6well dishes. Three independent incubations with the test compound were performed. For Affymetrix gene chip analysis samples isolated from the 6-well dishes were stored in RNAprotect reagent from Qiagen until isolation of RNA. The RNA was quantified using a NanoDrop N-1000 spectrophotometer, and the integrity of RNA was confirmed with a standard sense automated gel electrophoresis system. Samples were used for transcriptional profiling only when their RNA quality indicator (RQI) number was > 8. First-strand cDNA was synthesized from 100 ng total RNA using an oligo-dT primer with an attached T7 promoter sequence, followed by the complementary second strand. The double-stranded cDNA molecule was used for in vitro transcription (IVT, standard Affymetrix procedure) using Genechip 3′ IVT Express Kit. During synthesis of the aRNA (amplified RNA, also commonly referred to as cRNA), a biotinylated nucleotide analogue was incorporated, which served as a label for the message. After amplification, aRNA was purified with magnetic beads and 15 µg of aRNA was fragmented with the fragmentation buffer as per the manufacturer’s instructions. Then 12.5 µg fragmented aRNA was hybridized with Affymetrix Rat Genome 230 2.0 Arrays. The chips were placed in a GeneChip Hybridization Oven-645 for 16 h at 60 rpm and 45 °C. For staining and washing, Affymetrix HWS kits were used on a Genechip Fluidics Station-450. For scanning, the Affymetrix GeneChip Scanner-3000-7G was used, and the image and quality control assessments were performed with Affymetrix GCOS software. All reagents and instruments were acquired from Affymetrix (Affymetrix, Santa Clara, CA, USA). The generated CEL files were used for further statistical analysis as described in Grinberg et al., 2018).

## C=CN1CCCC1=O [NVP, N-vinylpyrrolidone]
CYP 2B/3A; 5 ppm
  Liver microsomal BROD activity: 54.5 ± 11.3 pmol/min/mg protein
CYP 2B/3A; 10 ppm
  Liver microsomal BROD activity: 61.7 ± 16 pmol/min/mg protein
CYP 2B/3A; 20 ppm
  Liver microsomal BROD activity: 42.1 ± 16.5 pmol/min/mg protein
Primary rat hepatocytes; 40 µM
  Nrg1 upregulation: 3.5 fold
  PDK4 upregulation: 3.5 fold
Primary rat hepatocytes; 200 µM
  Atf3 upregulation: 5.1
  Nrg1 upregulation: 6.2 fold
  PDK4 upregulation: 5.9 fold
Primary rat hepatocytes; 1000 µM
  Atf3 upregulation: 7.1
  Nrg1 upregulation: 7.3 fold
  PDK4 upregulation: 8.8 fold
Primary rat hepatocytes; 8, 40, 200 and 1000 µM tested
  Lowest concentration with expression changes (PCA): 8 µM
